For orientation: ΔTm means the change in melting temperature against a reference sample. As usually defined, the Kd is the equilibrium constant for the complex coming apart.

Our source for the ΔTm and Kd values is patent publication US20260317356A1, “SMALL MOLECULE MODULATORS OF OGG1” (AZKARRA THERAPEUTICS, INC., priority 2023, published 2026).

SMILES strings stand for the structures.

The target of one test is T1, nLucOGG1 in HeLa cells (Homo sapiens, UniProt O15527).
T1 construct: thermal shift read by NanoGlo luminescence
The experiment in a line: Cellular Thermal Shift Assay to measure compound affinity for nLucOGG1 in HeLa cells (CETSA DTm). The conditions noted are these: 10 μM compound, 37° C. 60 min, Tm vs DMSO control. In kind it is cell-based. The method, then: Biological Example 2: Cellular Thermal Shift Assay to Measure Compound Affinity for ^nLucOGG1 in HeLa Cells (CETSA DTm)
Cell Culture and Transfection of Hela Cells with ^nLucOGG1: For all tests, Hela cells were maintained in growth medium, Dulbecco's Minimum Eagle Medium (Multicell: Cat #319-005-CL) supplemented with 10% heat-inactivated fetal bovine serum (Gibco: Cat #12484-028) at 37° C. and 5% CO2 in a humidified tissue culture incubator. Transient transfections were performed using the Lonza 4-D Nucleofector X unit according to the manufacturer's protocol (Lonza Cat #V4XC-1024). Briefly, for each transfection, 1.2×10^6 cells were centrifuged at 1000 RPM for 5 minutes at room temperature before being diluted in 100 μL SE solution containing 18% v/v supplement and 1.5 μg pNF1-N-empty or pNF1-N-OGG1a vector. The total volume was transferred to a 100 μL nucleofection cuvette prior to transfer to the apparatus where HeLa cell nucleofection protocol CN-114 was executed. Following nucleofection, 500 μL complete media was added to the cells in the cuvette before transferring to a 6-well dish containing 1.5 mL of complete media. Cells were left to incubate for 48 hours before performing all cellular thermal shift experiments.
Cellular Thermal Shift Assays for Target Engagement (CETSA): Forty-eight hours following nucleofection, cells were washed once with DPBS−/−(Multicell: Cat #311-425-CL) and lifted with 0.25% Trypsin-EDTA (Multicell: Cat #325-043-CL) prior to dilution in growth medium and centrifugation at 1000 RPM for 5 minutes at room temperature. The resulting cell pellet was then resuspended in growth medium, cells were counted and the volume adjusted to 500 k cells/mL (2×).
For delta Tm determination, OGG1 inhibitor compounds were dissolved in DMSO to a final working concentration of 20 mM. Working solutions were then diluted in complete media to 20 μM or 0.1% DMSO for the vehicle control (2×). 2×OGG1 inhibitor compound solutions or 0.1% DMSO control were then pre-dispensed into MicroAmp Optical 96-well PCR reaction plates (Applied Biosystems: Cat #4346906) at 50 μL/well. Next, 50 μL or 25 k cells/well from the 2× cell suspension was added to the pre-loaded PCR plates. All plates were prepared as duplicates, covered with adhesive plate sealers (Perkin Elmer: Cat #6050185) and left to incubate at 37° C. for 60 minutes. During incubation, sufficient NanoGlo luciferase assay reagents (Promega: Cat #N1120) were left to equilibrate to room temperature in the dark. Immediately before heating the plates, the NanoGlo substrate was mixed with the NanoGlo buffer at a 1:50 ratio. The thermal cycler (Veriti 96-Well Thermal Cycler, Thermo Fisher Scientific) was allowed to reach the designated temperature prior to placement of the PCR plate into the heating block. For Tm determination experiments, duplicate plates containing a fixed concentration of test compound (10 μM final) as well as vehicle control were prepared to perform a 12-point temperature gradient spanning 37-70° C. for 3 minutes. Therefore, two thermal cycler protocols were set up covering two 6-step temperature gradients ranging from 37-52° C. and 52-70° C. Plates were then allowed to cool at room temperature for 5 minutes after the heat treatment followed by transfer of 75 μL of the reaction into a 96-well white polystyrene microplate (Corning: Cat #CLS3903) and addition of 75 μL of the prepared NanoGlo mixture. Microplates were then left to shake in the dark for 5 minutes before total luminescence was measured on a SpectraMax IX3 plate reader. The luminescence value obtained at each temperature was normalized to the luminescence obtained at 37° C. and the ratio obtained was plotted against the temperature. A Boltzman Sigmoidal non-linear regression was applied to the resulting data to determine Tm values and the difference between the Tm value for a given OGG1 inhibitor relative to the DMSO vehicle control was the delta Tm.

For the next test, the target named is hOGG1 (Homo sapiens, UniProt O15527). The experiment in a line: Surface Plasma Resonance with hOGG1 to measure compound affinity (OGG1 SPR Kd). The format is binding. More on the design: Protein His-hOGG1 (12-323) was prepared. The following applies: Biacore T-200, immobilized his-tagged OGG1; pH 7.4; 2% DMSO; single-cycle kinetics. As to the method: Surface Plasma Resonance with hOGG1 to Measure Compound Affinity (OGG1 SPR Kd); All the SPR studies were performed on a Biacore T-200 instrument (Cytiva life sciences) using series S NTA sensor chip (cat #BR-1005-32, Cytiva life sciences). Recombinant his-tagged OGG1 (mol. wt. 36003; ChemPartner, Shanghai, China) was immobilized on NTA sensor chip via Ni^2+/NTA chelation using NTA reagent kit (Cytiva life sciences; cat #289950) as per manufacturer's recommended protocol. The running buffer during immobilization contained HEPES (20 mM, pH 7.4), 150 mM NaCl, 0.5 mM TCEP (tris(2-carboxyethyl)phosphine), and 0.005% Tween-20. NTA sensor chip (experimental cell) was first conditioned by injecting regeneration solution (350 mM EDTA, flow rate 30 μL/min, 2 injections 60 each). Additional wash with 50 mM NaOH was used whenever the chip was regenerated (flow rate 30 μL/min, 1 injection of 60 s). The sensor chip was then activated with 0.5 mM NiCl2 (flow rate 10 μL/min, 2 injection of 60 s, leading to a baseline increase of ~40 RU), and the excess Ni^2+ was removed using immobilization buffer containing 3 mM EDTA (flow rate 10 μL/min, 1 injection of 60 s). Finally, OGG1 (diluted to 6.2 μg/mL in running buffer) was injected on the activated sensor chip at a flow rate of 10 μL/min until immobilization level reached ~6000 RU. Any loosely bound protein was removed by passing the immobilization buffer overnight at 20 μL/min. At this point, the drift in baseline was ~0.01 RU/s and the final immobilization level was ~2500 RU. Reference cell was left untreated. SPR binding experiments were performed using binding buffer (20 mM HEPES (pH 7.4), 150 mM NaCl, 0.5 mM TCEP, 0.005% Tween-20, and 2% DMSO) at a flow rate of 30 μL/min. Single-cycle kinetics approach was used for binding analysis which consisted of sequential injections of increasing concentrations of test compound (a 3-fold serial dilution with 5 concentrations; highest 750 or 1500 nM; with final DMSO concentration at 2%) over the immobilized protein without regeneration step between each sample injection. Each injection was 45 seconds long (contact time), followed by a final dissociation of 600 sec. The Biacore T-200 Evaluation software 3.1 (GE Healthcare) was used to determine kinetic parameters from SPR data. All the reported sensograms were reference subtracted and corrected for refractive index contributions from solvent using 8-point solvent correction (1.4 to 2.8% DMSO in binding buffer). Data were fit to both steady state and 1:1 kinetic model to obtain Kon, Koff and binding affinity (Kd).
Background: Surface plasmon resonance follows binding to a sensor surface in real time, without labels.

Chain of hOGG1 (O15527 12-323): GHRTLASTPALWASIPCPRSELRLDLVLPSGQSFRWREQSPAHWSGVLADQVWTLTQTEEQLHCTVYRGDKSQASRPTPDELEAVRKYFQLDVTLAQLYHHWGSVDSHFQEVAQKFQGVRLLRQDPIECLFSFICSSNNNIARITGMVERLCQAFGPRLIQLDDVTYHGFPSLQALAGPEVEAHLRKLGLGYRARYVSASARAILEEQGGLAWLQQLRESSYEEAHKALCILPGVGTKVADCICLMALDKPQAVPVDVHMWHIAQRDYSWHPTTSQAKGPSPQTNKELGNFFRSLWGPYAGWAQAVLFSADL
T1 sequence (O15527 whole entry): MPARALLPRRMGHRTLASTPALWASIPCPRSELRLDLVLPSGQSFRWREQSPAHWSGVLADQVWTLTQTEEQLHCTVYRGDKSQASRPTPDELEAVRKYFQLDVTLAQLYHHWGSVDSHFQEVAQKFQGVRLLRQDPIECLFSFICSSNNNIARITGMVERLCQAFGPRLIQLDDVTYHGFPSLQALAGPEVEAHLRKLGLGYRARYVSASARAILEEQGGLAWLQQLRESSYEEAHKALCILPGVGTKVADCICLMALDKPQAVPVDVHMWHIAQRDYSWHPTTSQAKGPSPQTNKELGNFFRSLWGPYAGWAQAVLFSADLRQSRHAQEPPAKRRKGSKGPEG

`COc1ccc(NC(=O)[C@]2(C)CC[C@H](N3Cc4c(C)ccc(OC)c4NC3=O)CC2)cc1Cl` (single isomer, unassigned) [Example 7, (1s,4s)-N-(3-chloro-4-methoxyphenyl)-4-(8-methoxy-5-methyl-2-oxo-1,2-dihydroquinazolin-3(4H)-yl)-1-methylcyclohexanecarboxamide]: on nLucOGG1 in HeLa cells, the ΔTm at 10 µM was 8 to 10 °C. The same compound had a Kd at hOGG1 of 10 to 100 nM.
The like results for `COc1ccc(NC(=O)[C@]2(C)CC[C@H](N3Cc4c(C)ccc(OC)c4NC3=O)CC2)cc1C#N` (single isomer, unassigned) [Example 9, (1s,4s)-N-(3-cyano-4-methoxyphenyl)-4-(8-methoxy-5-methyl-2-oxo-1,2-dihydroquinazolin-3(4H)-yl)-1-methylcyclohexanecarboxamide] were, in that order, 8 to 10 °C and ≤ 10 nM.
In the case of `COc1ccc(NC(=O)[C@]2(C)CC[C@H](N3Cc4c(C)ccc(OC)c4NC3=O)CC2)cc1C` (single isomer, unassigned) [Example 11, (1s,4s)-N-(3-methyl-4-methoxyphenyl)-4-(8-methoxy-5-methyl-2-oxo-1,2-dihydroquinazolin-3(4H)-yl)-1-methylcyclohexanecarboxamide], the ΔTm at 10 µM on nLucOGG1 in HeLa cells lay within 8 to 10 °C. In addition, on hOGG1, the dissociation constant (Kd) was ≤ 10 nM.
The like results for `COc1ccc(NC(=O)[C@]2(C)CC[C@H](N3Cc4c(C)cccc4NC3=O)CC2)cc1Cl` (single isomer, unassigned) [Example 103, (1s,4s)-N-(3-chloro-4-methoxyphenyl)-1-methyl-4-(5-methyl-2-oxo-1,2-dihydroquinazolin-3(4H)-yl)cyclohexanecarboxamide] were, in that order, 8 to 10 °C and 10 to 100 nM.
For `COc1ccc(NC(=O)[C@H]2CC[C@@H](N3Cc4c(C)ccc(OC)c4NC3=O)CC2)cc1C#N` [Example 2, (1s,4s)-N-(3-Cyano-4-methoxyphenyl)-4-(8-methoxy-5-methyl-2-oxo-1,2-dihydroquinazolin-3(4H)-yl)cyclohexanecarboxamide] the same measures were 6 to 8 °C and 10 to 100 nM.
Consider `COc1ccc(NC(=O)[C@H]2CC[C@@H](N3Cc4c(C)ccc(OC)c4NC3=O)CC2)cc1Cl` [Example 3, (1s,4s)-N-(3-Chloro-4-methoxyphenyl)-4-(8-methoxy-5-methyl-2-oxo-1,2-dihydroquinazolin-3(4H)-yl)cyclohexanecarboxamide], for which the ΔTm at 10 µM on nLucOGG1 in HeLa cells lay in the range of 6 to 8 °C. Also, at hOGG1, the Kd lay in the range of 10 to 100 nM.
For `COc1ccc(NC(=O)[C@H]2CC[C@@H](N3Cc4c(C)ccc(OC)c4NC3=O)CC2)cc1C` [Example 4, (1s,4s)-N-(3-Methyl-4-methoxyphenyl)-4-(8-methoxy-5-methyl-2-oxo-1,2-dihydroquinazolin-3(4H)-yl)cyclohexanecarboxamide] the same measures were 6 to 8 °C and 10 to 100 nM.
In the case of `COc1cc(NC(=O)[C@H]2CC[C@@H](N3Cc4c(C)ccc(P(C)(C)=O)c4NC3=O)CC2)ccc1C` [Example 5, (1s,4s)-4-(8-(Dimethylphosphoryl)-5-methyl-2-oxo-1,2-dihydroquinazolin-3(4H)-yl)-N-(3-methoxy-4-methylphenyl)cyclohexanecarboxamide], the ΔTm at 10 µM on nLucOGG1 in HeLa cells lay within 6 to 8 °C. In addition, the Kd at hOGG1 was ≤ 10 nM.
As for `COc1cc(NC(=O)[C@]2(C)CC[C@H](N3Cc4c(C)ccc(OC)c4NC3=O)CC2)ccc1C` [Example 13, (1s,4s)-N-(3-Methoxy-4-methylphenyl)-4-(8-methoxy-5-methyl-2-oxo-1,2-dihydroquinazolin-3(4H)-yl)-1-methylcyclohexanecarboxamide], on nLucOGG1 in HeLa cells, the ΔTm at 10 µM lay in the range of 8 to 10 °C. The compound further registered a Kd at hOGG1 of 10 to 100 nM.
For `COc1ccc(NC(=O)[C@H]2CC[C@@H](N3Cc4c(C)ccnc4NC3=O)CC2)cc1Cl` [Example 14, (1s,4s)-N-(3-Chloro-4-methoxyphenyl)-4-(5-methyl-2-oxo-1,2-dihydropyrido[2,3-d]pyrimidin-3(4H)-yl)cyclohexanecarboxamide] the same measures were 6 to 8 °C and 10 to 100 nM.
